pIC50: −log10 of the molar value.
Assays:
[1] = molecular target: T1, N-terminally His6-tagged recombinant kinase domain of the human c-Met (amino acids 960-1390) (Homo sapiens, UniProt P08581); assay: c-Met receptor tyrosine kinase homogeneous time-resolved fluorescence assay (alternative format); type: biochemical; conditions: HTRF; ATP 10 μM, 30 min at 22° C.
T1 construct: kinase domain of the human c-Met (amino acids 960-1390); His6 (N); made in house; host or cells: insect cells (SF21)
Description: c-Met Receptor Tyrosine Kinase Homogeneous Time-Resolved Fluorescence Assay (Alternative Format):
The N-terminally His6-tagged recombinant kinase domain of the human c-Met (amino acids 960-1390), expressed in insect cells (SF21) and purified by Ni-NTA affinity chromatography and consecutive size exclusion chromatography (Superdex 200), is used. Alternatively, commercially available c-Met (Millipore) can be used. As substrate for the kinase reaction, the biotinylated poly-Glu,Tyr (4:1) copolymer (#61GT0BLC, Cis Biointernational, Marcoule, France) is used.
For the assay, 50 nL of a 100-fold concentrated solution of the test compound in DMSO is pipetted into a black low-volume 384-well microtiter plate (Greiner Bio-One, Frickenhausen, Germany). 2 μL of a solution of c-Met in assay buffer [25 mM Hepes/NaOH, pH 7.5; 5 mM MgCl2; 5 mM MnCl2; 2 mM dithiothreitol; 0.1% (v/v) Tween 20 (Sigma); 0.1% (w/v) bovine serum albumin] are added, and the mixture is incubated for 15 min at 22° C. to allow pre-binding of the test compound to the enzyme before the start of the kinase reaction. Then, the kinase reaction is started by the addition of 3 μL of a solution of adenosine triphosphate (ATP, 16.7 μM; final concentration in the 5 μL assay volume is 10 μM) and substrate (2.27 μg/mL, final concentration in the 5 μL assay volume is 1.36 μg/mL˜30 nM) in assay buffer, and the resulting mixture is incubated for a reaction time of 30 min at 22° C. […]
The resulting mixture is incubated for 1 h at 22° C. to allow the binding of the biotinylated phosphorylated peptide to the streptavidine-XLent and the PT66-Eu-chelate. Subsequently, the amount of phosphorylated substrate is evaluated by measurement of the resonance energy transfer from the PT66-Eu-chelate to the streptavidine-XLent. Therefore, the fluorescence emissions at 620 nm and 665 nm after excitation at 350 nm are measured in an HTRF reader, e.g. Rubystar (BMG Lab-technologies, Offenburg, Germany) or Viewlux (Perkin-Elmer). […]

[2] = molecular target: T2, Recombinant human c-Met protein (Homo sapiens, UniProt P08581); assay: c-Met receptor tyrosine kinase activity assay (NADH read-out); type: biochemical; conditions: c-Met 30 nM, ATP 30 μM, 100 min at 32° C.
T2 construct: purchased Invitrogen
Experimental: c-Met Receptor Tyrosine Kinase Activity Assay (NADH Read-Out):
Recombinant human c-Met protein (Invitrogen, Carlsbad, Calif., USA) is used. As substrate for the kinase reaction the peptide KKKSPGEYVNIEFG (JPT, Germany) is used. For the assay, 1 μL of a 51-fold concentrated solution of the test compound in DMSO is pipetted into a white 384-well microtiter plate (Greiner Bio-One, Frickenhausen, Germany). 25 μL of a solution of c-Met (final concentration 30 nM) and pyruvate kinase/lactate dehydrogenase (Roche Diagnostics, Mannheim, Germany; final concentration 8 mg/L) in assay buffer [3-(N-morpholino)propane-sulfonic acid (MOPS), 50 mM, pH 7; MgCl2, 10 mM; bovine serum albumin (BSA), 0.01%; Triton X 100, 0.01%; DTT, 2 mM] are added, and the mixture is incubated for 5 min at room temperature. Then, the kinase reaction is started by the addition of 25 μL of a solution of adenosine triphosphate (ATP, final concentration 30 μM), substrate (final concentration 100 μM), nicotinamide adenine dinucleotide (NADH, final concentration 50 μM) and dithiothreitol (DTT, final concentration 2 mM) in assay buffer, and the resulting mixture is incubated for a reaction time of 100 min at 32° C.
Subsequently, the amount of phosphorylated substrate is evaluated by measurement of the decrease of NADH fluorescence. Therefore, the fluorescence emissions at 465 nm after excitation at 340 nm is measured in a fluorescence reader, e.g. Tecan Ultra (Tecan, Männedorf, Switzerland). The data are normalised (enzyme reaction without inhibitor=0% inhibition; all other assay components but no enzyme=100% inhibition).

T1 sequence (P08581 960-1390): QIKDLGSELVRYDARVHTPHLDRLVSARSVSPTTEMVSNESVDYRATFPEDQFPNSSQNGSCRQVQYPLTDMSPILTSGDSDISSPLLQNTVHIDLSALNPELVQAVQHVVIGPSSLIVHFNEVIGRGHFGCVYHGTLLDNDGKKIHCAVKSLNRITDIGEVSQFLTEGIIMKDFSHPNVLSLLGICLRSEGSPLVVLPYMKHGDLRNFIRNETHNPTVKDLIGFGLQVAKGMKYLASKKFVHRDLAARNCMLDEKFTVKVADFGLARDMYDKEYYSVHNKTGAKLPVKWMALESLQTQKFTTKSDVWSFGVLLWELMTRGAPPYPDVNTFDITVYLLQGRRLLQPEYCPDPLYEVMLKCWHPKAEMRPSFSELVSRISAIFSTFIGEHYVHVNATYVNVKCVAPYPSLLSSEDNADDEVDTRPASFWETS
T2 sequence (P08581 25-1390): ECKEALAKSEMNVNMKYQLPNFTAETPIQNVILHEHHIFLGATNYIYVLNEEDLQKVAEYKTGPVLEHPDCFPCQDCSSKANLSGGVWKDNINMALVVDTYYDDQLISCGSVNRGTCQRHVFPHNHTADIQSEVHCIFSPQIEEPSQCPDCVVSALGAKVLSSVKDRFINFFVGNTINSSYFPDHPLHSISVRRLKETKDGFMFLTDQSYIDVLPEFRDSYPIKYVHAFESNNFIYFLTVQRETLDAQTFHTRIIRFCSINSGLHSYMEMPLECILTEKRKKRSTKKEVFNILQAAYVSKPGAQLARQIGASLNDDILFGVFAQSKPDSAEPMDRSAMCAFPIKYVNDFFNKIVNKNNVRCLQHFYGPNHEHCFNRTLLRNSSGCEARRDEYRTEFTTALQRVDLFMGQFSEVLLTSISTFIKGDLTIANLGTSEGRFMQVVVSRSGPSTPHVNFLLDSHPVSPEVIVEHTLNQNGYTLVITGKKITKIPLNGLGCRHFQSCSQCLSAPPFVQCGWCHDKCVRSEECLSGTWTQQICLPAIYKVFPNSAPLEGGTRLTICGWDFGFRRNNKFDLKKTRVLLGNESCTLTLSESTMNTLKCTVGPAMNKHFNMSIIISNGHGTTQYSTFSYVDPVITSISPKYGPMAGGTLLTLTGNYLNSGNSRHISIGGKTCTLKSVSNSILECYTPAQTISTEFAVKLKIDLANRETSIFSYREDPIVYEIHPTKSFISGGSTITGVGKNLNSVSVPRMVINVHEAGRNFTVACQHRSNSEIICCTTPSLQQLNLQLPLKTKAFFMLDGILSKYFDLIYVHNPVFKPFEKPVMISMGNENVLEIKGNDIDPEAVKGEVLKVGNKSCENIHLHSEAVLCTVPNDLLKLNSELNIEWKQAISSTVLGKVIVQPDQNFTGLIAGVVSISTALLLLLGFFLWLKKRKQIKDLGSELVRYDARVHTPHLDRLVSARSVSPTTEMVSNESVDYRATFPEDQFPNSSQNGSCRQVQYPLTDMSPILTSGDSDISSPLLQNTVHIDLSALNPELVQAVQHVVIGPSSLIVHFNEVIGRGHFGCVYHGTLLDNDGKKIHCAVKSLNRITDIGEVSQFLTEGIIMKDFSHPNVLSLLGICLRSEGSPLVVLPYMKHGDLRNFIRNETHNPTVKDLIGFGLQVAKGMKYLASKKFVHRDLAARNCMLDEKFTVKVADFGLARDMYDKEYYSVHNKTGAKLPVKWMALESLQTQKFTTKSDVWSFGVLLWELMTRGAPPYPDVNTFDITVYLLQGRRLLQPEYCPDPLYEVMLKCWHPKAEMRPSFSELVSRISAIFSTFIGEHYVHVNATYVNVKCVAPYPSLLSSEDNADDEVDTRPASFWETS

Row | SMILES | pIC50 [1] | pIC50 [2]
1 | CCc1n[nH]c2ccc(C3C(C#N)=C(C)N4CCOCC4=C3C#N)cc12 (racemic) [Example 4, 8-(3-Ethyl-1H-indazol-5-yl)-6-methyl-1,3,4,8-tetrahydropyrido[2,1-c][1,4]oxazine-7,9-dicarbonitrile] | 7.64 | –
2 | CCc1n[nH]c2ccc(C3C(C#N)=C(C)N4CCOCC4=C3C#N)cc12 (single isomer, unassigned) [Example 5, 8-(3-Ethyl-1H-indazol-5-yl)-6-methyl-1,3,4,8-tetrahydropyrido[2,1-c][1,4]oxazine-7,9-dicarbonitrile] | – | 7.92
3 | CCc1n[nH]c2ccc(C3C(C#N)=C(C)N4CCOCC4=C3C#N)cc12 (single isomer, unassigned) [Example 6, 8-(3-Ethyl-1H-indazol-5-yl)-6-methyl-1,3,4,8-tetrahydropyrido[2,1-c][1,4]oxazine-7,9-dicarbonitrile] | – | 7.06
4 | CC1=C(C#N)C(c2ccc3[nH]nc(C)c3c2)C(C#N)=C2COCCN12 (single isomer, unassigned) [Example 2, 6-Methyl-8-(3-methyl-1H-indazol-5-yl)-1,3,4,8-tetrahydropyrido[2,1-c][1,4]oxazine-7,9-dicarbonitrile] | 9.00 | 8.10
5 | CC1=C(C#N)C(c2ccc3[nH]nc(-c4ccc(F)nc4)c3c2)C(C#N)=C2COCCN12 (stereo not shown) [Example 7, 8-[3-(6-Fluoropyridin-3-yl)-1H-indazol-5-yl]-6-methyl-1,3,4,8-tetrahydropyrido[2,1-c][1,4]-oxazine-7,9-dicarbonitrile] | 8.70 | 7.64

— patent US8642595B2, “Annellated 4-(indazolyl)-1,4-dihydropyridine derivatives and methods of use thereof” (Bayer Intellectual Property GmbH, priority 2008, dated 2014)
